The results in this text go back to US7964596B2, “Therapeutic compounds” (Allergan, Inc., priority 2008, dated 2011).

“Also recorded” adds a separate entry of the source.

This test concerns lashes and adjacent hairs of patients having glaucoma. The test is described as follows: Observation of lashes and adjacent hairs in glaucoma patients treated in only one eye. It is filed as in vivo, human. Particulars: glaucoma patients taking the drug in only one eye; gross inspection and slit lamp biomicroscope. From the text: In the course of treating patients having glaucoma, treatment may only be appropriate in one eye. […] The lash appearance on the lids of the treated eyes would have appeared quite attractive if it represented a bilateral phenomenon. As a result of its asymmetric nature, the long lashes on one side could be construed as disturbing from a cosmetic standpoint. A systemic examination was preformed as a result of the asymmetric phenomenon. It soon became apparent that this altered appearance was not an isolated finding. […] Definite differences could be identified to varying degrees in the lashes and adjacent hairs of all patients who were taking the drug on a unilateral basis for longer than 6 months.
The changes in the lashes were apparent on gross inspection in several patients once attention was focused on the issue. In those with light colored hair and lashes, the differences were only seen easily with the aid of the high magnification and lighting capabilities of the slit lamp biomicroscope. In the course of glaucoma follow-up examination, attention is generally immediately focused on the eye itself. As a result of the high power magnification needed only one eye is seen at a time and the eye is seen at a high enough power that the lashes are not in focus. […]

For `CCNC(=O)CCC/C=C\C[C@@H]1[C@@H](/C=C/[C@@H](O)CCc2ccccc2)[C@H](O)C[C@@H]1O` [bimatoprost], the “lash / hair growth in treated eye versus non-treated eye” value is “longer, thicker, and fuller in the treated eye than in the non-treated eye; also recorded: hair growth is stimulated”.
